Converted amounts (≈) assume the structure as drawn.
How the values were obtained:
[1] = Solubility in phosphate buffered saline; type: physicochemical; details: 10 mM phosphate buffered saline (0.138 M NaCl, 2.7 mM KCl), pH 7.4
Method: To a sample of the material of known mass were added known volumes of phosphate buffered saline until complete dissolution is observed. Suspensions were centrifuged for 5 min at 10000 rpm. […] Upon complete dissolution, the solution is diluted until the final concentration is 0.5 mg/mL to ensure that the material remains soluble over the entire range of concentrations.

[2] = system: S. aureus ATCC 13709; experiment: In vitro antibacterial susceptibility (MIC, broth microdilution); type: cell-based; details: for MIC against S. aureus ATCC 13709, CAMHB: cation-adjusted Mueller-Hinton broth, 37° C., 18 h; for Antibacterial activity compared with oritavancin 5: deduced from the MIC data of Table 2
Method: Susceptibility of S. aureus strain ATCC13709 to oritavancin (5) and synthesized compounds was determined following the guidelines set by the Clinical and Laboratory Standards Institute (formerly the National Committee for Clinical Laboratory Standards) (M26-A). Compounds were serially diluted two-fold in either DMSO (Oritavancin 5) or in PBS and transferred to cation-adjusted Mueller Hinton broth (CAMHB; Becton Dickinson). 50 μL of compounds diluted in CAMHB was mixed with 100 μL of bacteria diluted in CAMHB in 96-well microtiter plates. The final number of micro-organisms in the assay was 5×10^5 c.f.u. per mL and the final concentration of DMSO in the assay, if present, was 1.25%. All solutions may contain 0.002% Tween as indicated. Assays were set up in duplicate and incubated at 37° C. for 18 h. The concentration of compound that inhibited visible growth was reported as the minimum inhibitory concentration (MIC).

[3] = system: S. aureus strain ATCC13709; experiment: Neutropenic mouse thigh infection model; type: in vivo, mice; details: for Recovered bacterial titers per thigh, 1 mg/kg / Recovered bacterial titers per thigh, 10 mg/kg / Recovered bacterial titers per thigh, 40 mg/kg: neutropenic mice, 24 h postinfection; for Recovered bacterial titers per thigh, 1 mg/kg: 1 mg/kg one hour after inoculation; for Recovered bacterial titers per thigh, 10 mg/kg: 10 mg/kg one hour after inoculation; for Recovered bacterial titers per thigh, 40 mg/kg: 40 mg/kg one hour after inoculation
Method: The susceptibility of S. aureus strain ATCC13709 to oritavancin (5) and selected synthesized compounds in vivo was evaluated with the well accepted neutropenic mouse thigh infection model (Craig, W. A. et al. Journal of Antimicrobial Chemotherapy (1991), 27 (Suppl. C):29-40). Mice were made neutropenic by treatment with cyclophosphamide (150 and 100 mg/kg of body weight administered intraperitoneally 4 days and 1 day prior to infection). Mice were anesthetized briefly with approximately 4% isoflurane just prior to inoculation. The bacterial suspension (0.1 mL) was injected intramuscularly into each thigh (approximately 10^5 colony forming units (CFU)/thigh). The selected agents were administered in 10% (w/w) β-hydroxypropylcyclodextrin in water at a concentration of 10 mg/mL one hour following bacterial inoculation. The animals were humanely sacrificed by CO2 asphyxiation 24 h postinfection. The entire thigh muscle mass including the bone was homogenized and diluted in 0.9% saline and aliquots were plated on Brain-Heart Infusion agar. Following overnight incubation at 37° C., bacteria were enumerated for each thigh and expressed as log10 CFU per thigh. This was performed over three independent experiments and oritavancin (5) was used as a comparator in each.

| SMILES | Solubility (mg/mL) PBS [1] | MIC against S. aureus ATCC 13709, CAMHB + 0.002% tween [2] [µg/mL] | MIC against S. aureus ATCC 13709, CAMHB + 50% human serum [2] [µg/mL] | MIC against S. aureus ATCC 13709, CAMHB + 50% mouse serum [2] [µg/mL] | MIC against S. aureus ATCC 13709, CAMHB + 50% rat serum [2] [µg/mL] | MIC against S. aureus ATCC 13709, CAMHB [2] [µg/mL] | Antibacterial activity compared with oritavancin 5 [2] | In vivo antibacterial efficacy compared with oritavancin ([3]; deduced from the data of Table 3) | Recovered bacterial titers per thigh, 1 mg/kg [3] [Log10 CFU/thigh] | Recovered bacterial titers per thigh, 10 mg/kg [3] [Log10 CFU/thigh] | Recovered bacterial titers per thigh, 40 mg/kg [3] [Log10 CFU/thigh] |
| --- | --- | --- | --- | --- | --- | --- | --- | --- | --- | --- | --- |
| CC(C)CC(C(=O)NC1C(=O)NC(CC(N)=O)C(=O)NC2C(=O)NC3C(=O)NC(C(=O)NC(C(=O)O)c4cc(O)cc(O)c4-c4cc3ccc4O)C(OC3CC(C)(N)C(O)C(C)O3)c3ccc(c(Cl)c3)Oc3cc2cc(c3OC2OC(CO)C(O)C(O)C2OC2CC(C)(NCc3ccc(-c4ccc(Cl)cc4)cc3)C(O)C(C)O2)Oc2ccc(cc2Cl)C1O)N(C)C(=O)OCOC(=O)C(CCCCN)NC(=O)C(N)CCCCN (stereo not drawn) [Compound 56] | >5 mg/mL | 0.5 | 4 | 0.5 | 0.25 | 2 (≈ 0.942 µM) | within an order of magnitude of that of oritavancin 5 |  |  |  |  |
| CC(C)CC(C(=O)NC1C(=O)NC(CC(N)=O)C(=O)NC2C(=O)NC3C(=O)NC(C(=O)NC(C(=O)O)c4cc(O)cc(O)c4-c4cc3ccc4O)C(OC3CC(C)(N)C(O)C(C)O3)c3ccc(c(Cl)c3)Oc3cc2cc(c3OC2OC(CO)C(O)C(O)C2OC2CC(C)(NCc3ccc(-c4ccc(Cl)cc4)cc3)C(O)C(C)O2)Oc2ccc(cc2Cl)C1O)N(C)C(=O)CNC(=O)C(N)CCCCN (stereo not drawn) [Compound 61] | <0.5 mg/mL | 0.25 | 0.25 | 1 | 0.5 | 2 (≈ 1.01 µM) | within an order of magnitude of that of oritavancin 5 |  |  |  |  |
| CNC(CC(C)C)C(=O)NC1C(=O)NC(CC(N)=O)C(=O)NC2C(=O)NC3C(=O)NC(C(=O)NC(C(=O)OCC(=O)NCCCNCCCN)c4cc(O)cc(O)c4-c4cc3ccc4O)C(OC3CC(C)(N)C(O)C(C)O3)c3ccc(c(Cl)c3)Oc3cc2cc(c3OC2OC(CO)C(O)C(O)C2OC2CC(C)(NCc3ccc(-c4ccc(Cl)cc4)cc3)C(O)C(C)O2)Oc2ccc(cc2Cl)C1O (stereo not drawn) [Compound 66] | >100 mg/mL | 0.25 | 0.125 | 1 | 0.125 | 2 (≈ 1.02 µM) | within an order of magnitude of that of oritavancin 5 | within the same order of magnitude than oritavancin itself | 8.16 ± 0.49 | 3.96 ± 1.74 | 4.04 ± 0.51 |
| CC(C)CC(C(=O)NC1C(=O)NC(CC(N)=O)C(=O)NC2C(=O)NC3C(=O)NC(C(=O)NC(C(=O)O)c4cc(O)cc(O)c4-c4cc3ccc4O)C(OC3CC(C)(N)C(O)C(C)O3)c3ccc(c(Cl)c3)Oc3cc2cc(c3OC2OC(CO)C(O)C(O)C2OC2CC(C)(NCc3ccc(-c4ccc(Cl)cc4)cc3)C(O)C(C)O2)Oc2ccc(cc2Cl)C1O)N(C)C(=O)OCc1ccc(OP(=O)(O)O)cc1 (stereo not drawn) [Compound 70] | 8 mg/mL (≈ 3950 µM) | 1 | 32 | 32 | >32 | 2 (≈ 0.989 µM) | weaker activities |  |  |  |  |
| CC(C)CC(C(=O)NC1C(=O)NC(CC(N)=O)C(=O)NC2C(=O)NC3C(=O)NC(C(=O)NC(C(=O)O)c4cc(O)cc(O)c4-c4cc3ccc4O)C(OC3CC(C)(N)C(O)C(C)O3)c3ccc(c(Cl)c3)Oc3cc2cc(c3OC2OC(CO)C(O)C(O)C2OC2CC(C)(NCc3ccc(-c4ccc(Cl)cc4)cc3)C(O)C(C)O2)Oc2ccc(cc2Cl)C1O)N(C)C(=O)OCOC(=O)CCC(=O)NC(CCC(=O)O)(CCC(=O)O)CCC(=O)O (stereo not drawn) [Compound 78] | 4 mg/mL (≈ 1820 µM) | 1 | 16 | 32 |  | 8 (≈ 3.64 µM) | weaker activities |  |  |  |  |
| CC(C)CC(C(=O)NC1C(=O)NC(CC(N)=O)C(=O)NC2C(=O)NC3C(=O)NC(C(=O)NC(C(=O)O)c4cc(O)cc(O)c4-c4cc3ccc4O)C(OC3CC(C)(N)C(O)C(C)O3)c3ccc(c(Cl)c3)Oc3cc2cc(c3OC2OC(CO)C(O)C(O)C2OC2CC(C)(NCc3ccc(-c4ccc(Cl)cc4)cc3)C(O)C(C)O2)Oc2ccc(cc2Cl)C1O)N(C)C(=O)OCOC(=O)CCP(=O)(O)O (stereo not drawn) [Compound 84] | 0.5 to 1 mg/mL | 0.125 | 0.5 | 2 |  | 1 (≈ 0.499 µM) | within an order of magnitude of that of oritavancin 5 |  |  |  |  |
| CNC(CC(C)C)C(=O)NC1C(=O)NC(CC(N)=O)C(=O)NC2C(=O)NC3C(=O)NC(C(=O)NC(C(=O)OCC(=O)NCCN)c4cc(O)cc(O)c4-c4cc3ccc4O)C(OC3CC(C)(N)C(O)C(C)O3)c3ccc(c(Cl)c3)Oc3cc2cc(c3OC2OC(CO)C(O)C(O)C2OC2CC(C)(NCc3ccc(-c4ccc(Cl)cc4)cc3)C(O)C(C)O2)Oc2ccc(cc2Cl)C1O (stereo not drawn) [Compound 90a] | ≧100 mg/mL | 0.5 | 0.25 | 0.5 |  | 1 (≈ 0.528 µM) | within an order of magnitude of that of oritavancin 5 |  | 8.38 ± 0.23 | 6.13 ± 2.53 | 5.27 ± 2.66 |
| CNC(CC(C)C)C(=O)NC1C(=O)NC(CC(N)=O)C(=O)NC2C(=O)NC3C(=O)NC(C(=O)NC(C(=O)OCC(=O)NCCCCN)c4cc(O)cc(O)c4-c4cc3ccc4O)C(OC3CC(C)(N)C(O)C(C)O3)c3ccc(c(Cl)c3)Oc3cc2cc(c3OC2OC(CO)C(O)C(O)C2OC2CC(C)(NCc3ccc(-c4ccc(Cl)cc4)cc3)C(O)C(C)O2)Oc2ccc(cc2Cl)C1O (stereo not drawn) [Compound 90c] | <1.6 mg/mL | 0.25 | 0.125 | 0.5 |  | 1 (≈ 0.52 µM) | within an order of magnitude of that of oritavancin 5 |  |  |  |  |
| CNC(CC(C)C)C(=O)NC1C(=O)NC(CC(N)=O)C(=O)NC2C(=O)NC3C(=O)NC(C(=O)NC(C(=O)OCC(=O)N(C)CCN(C)C)c4cc(O)cc(O)c4-c4cc3ccc4O)C(OC3CC(C)(N)C(O)C(C)O3)c3ccc(c(Cl)c3)Oc3cc2cc(c3OC2OC(CO)C(O)C(O)C2OC2CC(C)(NCc3ccc(-c4ccc(Cl)cc4)cc3)C(O)C(C)O2)Oc2ccc(cc2Cl)C1O (stereo not drawn) [Compound 103] | ≧100 mg/mL | 0.25 | 0.25 | 0.5 | 0.125 | 2 (≈ 1.03 µM) | within an order of magnitude of that of oritavancin 5 |  |  |  |  |

Source: US8901072B2, “Glycopeptide and lipoglycopeptide antibiotics with improved solubility” (The Medicines Company, priority 2009, dated 2014)
